# Experimental data reported in patent US11691969B2, “Pyridazinones as PARP7 inhibtors” (Ribon Therapeutics, Inc., priority 2019, dated 2023).
# Target: PARP7 (Homo sapiens (Human), UniProt Q7Z3E1)
# Test: TR-FRET assay: displacement of biotinylated Probe A from the TIPARP active site (Enzymatic Assay for Inhibition of PARP7)
# Assay type: binding
# Details: TIPARP 6 nM, Probe A 2 nM, 25° C.
# Method: Example A. Enzymatic Assay for Inhibition of PARP7
# Displacement of Probe A, a biotinylated probe binding to the TIPARP active site, was measured using a time-resolved fluorescence energy transfer (TR-FRET) assay. 20 nL of a dose response curve of each test compound was spotted in black 384-well polystyrene proxiplates (Perkin Elmer) using a Mosquito (TTP Labtech). Reactions were performed in a 8 μl volume by adding 6 μL of TIPARP and Probe A in assay buffer (20 mM HEPES pH=8, 100 mM NaCl, 0.1% bovine serum albumin, 2 mM DTT and 0.002% Tween20), incubating with test compound at 25° C. for 30 min, then adding 2 μL of ULight-anti 6×His and LANCE Eu-W1024 labeled streptavidin (Perkin Elmer). The final concentrations of TIPARP and Probe A were 6 nM and 2 nM, respectively. The final concentration of ULight-anti 6×His and LANCE Eu-W1024 labeled streptavidin were 4 nM and 0.25 nM, respectively. Reactions were incubated at 25° C. for an additional 30 min, then read on an Envision platereader equipped with a LANCE/DELFIA top mirror (Perkin Elmer) using excitation of 320 nm and emission of 615 nm and […] with a […]. The ratio of the 665/615 nm emission were calculated for each well to determine the amount of complex of TIPARP and Probe Ain each well. Control wells containing a negative control of 0.25% DMSO vehicle or a positive control of 100 μM 5-(5-(piperidin-4-yloxy)isoindolin-2-yl)-4-(trifluoromethyl)pyridazin-3(2H)-one were used to calculate the % inhibition as described below:
# [formula] where TRFcmpd is the TR-FRET ratio from the compound treated well, TRFmin is the TR-FRET ratio from the 5-(5-(piperidin-4-yloxy)isoindolin-2-yl)-4-(trifluoromethyl)pyridazin-3(2H)-one—treated positive control well and TRFmax is the TR-FRET ratio from the DMSO-treated negative control well. The % inhibition values were plotted as a function of compound concentration and the following 4-parameter fit was applied to derive the IC50 values:
# [formula] where top and bottom are normally allowed to float, but may be fixed at 100 or 0 respectively in a 3-parameter fit. The Hill Coefficient is normally allowed to float but may also be fixed at 1 in a 3-parameter fit. Y is the % inhibition and X is the compound concentration. Synthesis of Probe A
# Sequence of PARP7 (Q7Z3E1 whole entry): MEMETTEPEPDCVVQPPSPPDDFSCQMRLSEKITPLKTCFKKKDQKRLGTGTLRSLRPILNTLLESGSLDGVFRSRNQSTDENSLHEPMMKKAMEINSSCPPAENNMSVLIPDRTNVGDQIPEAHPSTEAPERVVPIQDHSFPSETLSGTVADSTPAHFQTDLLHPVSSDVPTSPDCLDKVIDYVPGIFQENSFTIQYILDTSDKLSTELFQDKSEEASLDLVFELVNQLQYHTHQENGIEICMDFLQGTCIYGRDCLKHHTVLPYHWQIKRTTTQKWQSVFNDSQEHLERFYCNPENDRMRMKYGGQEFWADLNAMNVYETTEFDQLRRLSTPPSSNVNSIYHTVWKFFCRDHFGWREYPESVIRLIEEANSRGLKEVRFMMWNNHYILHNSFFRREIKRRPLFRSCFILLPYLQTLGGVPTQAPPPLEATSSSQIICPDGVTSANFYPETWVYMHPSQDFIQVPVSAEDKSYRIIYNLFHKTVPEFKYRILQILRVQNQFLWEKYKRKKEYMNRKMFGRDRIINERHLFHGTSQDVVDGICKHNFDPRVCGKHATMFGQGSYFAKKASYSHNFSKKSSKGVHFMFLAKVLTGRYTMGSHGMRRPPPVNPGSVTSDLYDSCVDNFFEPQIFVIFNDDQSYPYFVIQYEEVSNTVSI
row,Compound,IC50
1,"C[C@@H](COCC(=O)N(C)C1CCN(c2ncc(C(F)(F)F)cn2)CC1)Oc1cn[nH]c(=O)c1Br [Example 28, (S)-2-(2-((5-bromo-6-oxo-1,6-dihydropyridazin-4-yl)oxy)propoxy)-N-methyl-N-(1-(5-(trifluoromethyl)pyrimidin-2-yl)piperidin-4-yl)acetamide]",< 100 nM
2,"C[C@H](Nc1cn[nH]c(=O)c1C(F)(F)F)C(=O)N[C@@H]1CCN(C2CCN(c3ncc(C(F)(F)F)cn3)CC2)C1=O [Example 61, (S)—N—((R)-2-oxo-1-(1-(5-(trifluoromethyl)pyrimidin-2-yl)piperidin-4-yl)pyrrolidin-3-yl)-2-((6-oxo-5-(trifluoromethyl)-1,6-dihydropyridazin-4-yl)amino)propanamide]",< 100 nM
3,"C[C@@H](CO[C@@H]1CCN(C2CCN(c3ncc(F)cn3)CC2)C1=O)Nc1cn[nH]c(=O)c1C(F)(F)F [Example 42, 5-(((S)-1-(((R)-1-(1-(5-fluoropyrimidin-2-yl)piperidin-4-yl)-2-oxopyrrolidin-3-yl)oxy)propan-2-yl)amino)-4-(trifluoromethyl)pyridazin-3(2H)-one]",< 100 nM
4,"C[C@@H](CO[C@@H]1CCN(C2CCN(c3ncc(C(F)(F)F)cn3)CC2C(N)=O)C1=O)Nc1cn[nH]c(=O)c1C(F)(F)F (stereo partly drawn) [Example 68, 4-((R)-2-oxo-3-((S)-2-((6-oxo-5-(trifluoromethyl)-1,6-dihydropyridazin-4-yl)amino)propoxy)pyrrolidin-1-yl)-1-(5-(trifluoromethyl)pyrimidin-2-yl)piperidine-3-carboxamide]",< 100 nM
5,"C[C@@H](CO[C@H]1CCN(C2CCN(c3ncc(C(F)F)cn3)CC2)C1=O)Nc1cn[nH]c(=O)c1C(F)(F)F [Example 15A, 5-(((S)-1-(((S)-1-(1-(5-(difluoromethyl)pyrimidin-2-yl)piperidin-4-yl)-2-oxopyrrolidin-3-yl)oxy)propan-2-yl)amino)-4-(trifluoromethyl)pyridazin-3(2H)-one]",100 to 1000 nM
6,"C[C@@H](COCC(=O)N(C)C1CCN(c2ncc(C(F)(F)F)cn2)CC1)Oc1cn[nH]c(=O)c1C(F)(F)F [Example 25, (S)-N-methyl-2-(2-((6-oxo-5-(trifluoromethyl)-1,6-dihydropyridazin-4-yl)oxy)propoxy)-N-(1-(5-(trifluoromethyl)pyrimidin-2-yl)piperidin-4-yl)acetamide]",< 100 nM
7,"C[C@@H](CO[C@H]1CCN(C2CCN(c3cnc(C(F)(F)F)cn3)CC2)C1=O)Nc1cn[nH]c(=O)c1C(F)(F)F [Example 13A, 5-(((S)-1-(((S)-2-oxo-1-(1-(5-(trifluoromethyl)pyrazin-2-yl)piperidin-4-yl)pyrrolidin-3-yl)oxy)propan-2-yl)amino)-4-(trifluoromethyl)pyridazin-3(2H)-one]",100 to 1000 nM
8,"COC[C@@H](CO[C@H]1CCN(C2CCN(c3ncc(C(F)(F)F)cn3)CC2)C1=O)Nc1cn[nH]c(=O)c1C(F)(F)F [Example 19A, 5-(((S)-1-methoxy-3-(((S)-2-oxo-1-(1-(5-(trifluoromethyl)pyrimidin-2-yl)piperidin-4-yl)pyrrolidin-3-yl)oxy)propan-2-yl)amino)-4-(trifluoromethyl)pyridazin-3(2H)-one]",100 to 1000 nM
9,"C[C@@H](COCC(=O)N(C)C1CN(c2ncc(C(F)(F)F)cn2)C1)Nc1cn[nH]c(=O)c1C(F)(F)F [Example 5, (S)—N-methyl-2-(2-(6-oxo-5-(trifluoromethyl)-1,6-dihydropyridazin-4-ylamino)propoxy)-N-(1-(5-(trifluoromethyl)pyrimidin-2-yl)azetidin-3-yl)acetamide]",< 100 nM
10,"C[C@@H](CO[C@@H]1CCN([C@H]2CCN(c3ccc(C#N)cn3)CC2(F)F)C1=O)Nc1cn[nH]c(=O)c1C(F)(F)F (single isomer, unassigned) [Example 40B]",< 100 nM
11,"C[C@@H](CO[C@@H]1CCN(C2CCN(c3ncc(C(F)(F)F)cn3)CC2)C1=O)Oc1cn[nH]c(=O)c1C(F)(F)F [Example 20B, 5-(((S)-1-(((R)-2-oxo-1-(1-(5-(trifluoromethyl)pyrimidin-2-yl)piperidin-4-yl)pyrrolidin-3-yl)oxy)propan-2-yl)oxy)-4-(trifluoromethyl)pyridazin-3(2H)-one]",< 100 nM
12,N#Cc1ccc(N2CCC(N3CC[C@@H](OCCNc4cn[nH]c(=O)c4C(F)(F)F)C3=O)CC2)nc1 [Example 36A],< 100 nM
13,"C[C@@H](COC1CCN(C2CCN(c3ncc(C(F)(F)F)cn3)CC2)C1)Nc1cn[nH]c(=O)c1C(F)(F)F (stereo partly drawn) [Example 21, 4-(trifluoromethyl)-5-(((2S)-1-((1-(1-(5-(trifluoromethyl)pyrimidin-2-yl)piperidin-4-yl)pyrrolidin-3-yl)oxy)propan-2-yl)amino)pyridazin-3(2H)-one]",100 to 1000 nM
14,"CC(=O)NC[C@@H](CO[C@@H]1CCN(C2CCN(c3ncc(C(F)(F)F)cn3)CC2)C1=O)Nc1cn[nH]c(=O)c1C(F)(F)F [Example 66, N—((S)-3-(((R)-2-oxo-1-(1-(5-(trifluoromethyl)pyrimidin-2-yl)piperidin-4-yl)pyrrolidin-3-yl)oxy)-2-((6-oxo-5-(trifluoromethyl)-1,6-dihydropyridazin-4-yl)amino)propyl)acetamide]",< 100 nM
15,"COC[C@@H](CO[C@@H]1CCN(C2CCN(c3ncc(C)cn3)CC2)C1=O)Nc1cn[nH]c(=O)c1C(F)(F)F [Example 53, 5-(((S)-1-methoxy-3-(((R)-1-(1-(5-methylpyrimidin-2-yl)piperidin-4-yl)-2-oxopyrrolidin-3-yl)oxy)propan-2-yl)amino)-4-(trifluoromethyl)pyridazin-3(2H)-one]",< 100 nM
16,"C[C@@H](COC1CCN(C2CCN(c3cnc(C(F)(F)F)cn3)CC2)C1=O)Nc1cn[nH]c(=O)c1Br (stereo partly drawn) [Example 12, 4-bromo-5-(((2S)-1-((2-oxo-1-(1-(5-(trifluoromethyl)pyrazin-2-yl)piperidin-4-yl)pyrrolidin-3-yl)oxy)propan-2-yl)amino)pyridazin-3(2H)-one]",< 100 nM
17,"C[C@@H](CO[C@@H]1CCN([C@H]2[C@@H]3CN(c4ncc(C(F)(F)F)cn4)C[C@@H]32)C1=O)Nc1cn[nH]c(=O)c1C(F)(F)F [Example 43, 5-(((S)-1-(((R)-2-oxo-1-((1R,5S,6s)-3-(5-(trifluoromethyl)pyrimidin-2-yl)-3-azabicyclo[3.1.0]hexan-6-yl)pyrrolidin-3-yl)oxy)propan-2-yl)amino)-4-(trifluoromethyl)pyridazin-3(2H)-one]",< 100 nM
18,"C[C@@H](COC1CCN([C@@H]2CCN(c3ncc(C(F)(F)F)cn3)C[C@H]2O)C1=O)Oc1cn[nH]c(=O)c1C(F)(F)F (stereo partly drawn) [Example 65, 5-(((2S)-1-((1-((3R,4R)-3-hydroxy-1-(5-(trifluoromethyl)pyrimidin-2-yl)piperidin-4-yl)-2-oxopyrrolidin-3-yl)oxy)propan-2-yl)oxy)-4-(trifluoromethyl)pyridazin-3(2H)-one]",< 100 nM

# More lines, now with the values ahead:
row,IC50,Compound
1,< 100 nM,C[C@@H](CO[C@H]1CCN(C2CCN(c3ccc(C#N)cn3)CC2)C1=O)Oc1cn[nH]c(=O)c1Br [Example 48B]
2,100 to 1000 nM,"Cc1cnc(N2CCC(N3CC[C@H](OC[C@H](C)Oc4cn[nH]c(=O)c4C(F)(F)F)C3=O)CC2)nc1 [Example 49A, 5-(((S)-1-(((S)-1-(1-(5-methylpyrimidin-2-yl)piperidin-4-yl)-2-oxopyrrolidin-3-yl)oxy)propan-2-yl)oxy)-4-(trifluoromethyl)pyridazin-3(2H)-one]"
3,< 100 nM,C[C@@H](CO[C@@H]1CCN(C2CCN(c3ccc(C#N)cn3)CC2)C1=O)Oc1cn[nH]c(=O)c1Br [Example 48A]
4,< 100 nM,"C[C@@H](CO[C@@H]1CCN(C2CCN(c3ncc(C(F)(F)F)cn3)CC2O)C1=O)Oc1cn[nH]c(=O)c1C(F)(F)F (stereo partly drawn) [Example 64B, Syn-5-(((2S)-1-(((3R)-1-(3-hydroxy-1-(5-(trifluoromethyl)pyrimidin-2-yl)piperidin-4-yl)-2-oxopyrrolidin-3-yl)oxy)propan-2-yl)oxy)-4-(trifluoromethyl)pyridazin-3(2H)-one]"
5,< 100 nM,"COC[C@@H](CO[C@@H]1CCN(C2CCN(c3ncc(C(F)(F)F)cn3)CC2)C1=O)Oc1cn[nH]c(=O)c1Br [Example 56B, 4-Bromo-5-(((S)-1-methoxy-3-(((R)-2-oxo-1-(1-(5-(trifluoromethyl)pyrimidin-2-yl)piperidin-4-yl)pyrrolidin-3-yl)oxy)propan-2-yl)oxy)pyridazin-3(2H)-one]"
6,< 100 nM,"COC[C@@H](CO[C@@H]1CCN(C2CCN(c3ccc(C#N)cn3)CC2)C1=O)Oc1cn[nH]c(=O)c1C(F)(F)F [Example 50B, 6-(4-((R)-3-((S)-3-methoxy-2-((6-oxo-5-(trifluoromethyl)-1,6-dihydropyridazin-4-yl)oxy)propoxy)-2-oxopyrrolidin-1-yl)piperidin-1-yl)nicotinonitrile]"
